Experimental data published in patent US12053736B2, “Process for regenerating a liquid absorbent” (COMMONWEALTH SCIENTIFIC AND INDUSTRIAL RESEARCH ORGANISATION, priority 2019, dated 2024).
Read-outs that look alike come from different tables or passages of the source.

Legend:
[1] = conjugate acid pKa, cited from earlier work
[2] = Accelerated oxidative degradation of diethanolamine solutions with sacrificial amine (CO2/O2, 55° C., 13C-NMR); details: 5.9 mol/L DEA and 0.1 mol/L additive, CO2 (1 bar), O2 (9 bar), 115 hours
Description: The effect of 3-aminomethylpyridine (3-AMPy) and benzylamine (BZA) on the degradation of DEA was investigated using accelerated degradation conditions designed to simulate longer-term degradation in a gas capture process. DEA solutions were thus prepared as follows: i) 6 mol/L DEA; ii) 5.9 mol/L DEA and 0.1 mol/L BZA; and iii) 5.9 mol/L DEA and 0.1 mol/L 3-AMPy. Each solution (10 ml) was placed in a Fischer-Porter vessel. The vessels were sealed and the remaining headspace of the vessels was filled with CO2 (1 bar) and O2 (9 bar). The liquid phase in the vessels was stirred via magnetic stirring bars and heated to 55° C. by immersion in a water bath for 115 hours.
Samples were then taken and analysed by ^13C-NMR spectroscopy (Bruker Avance 400).

[3] = Viscosity of absorbent (Anton Parr LOVIS 2000 ME, 40° C.); type: physicochemical; details: imine added to fresh absorbent
Description: Another sample of the aqueous absorbent, which had initially contained 3 mol/L 3-AMPy and 3 mol/L 2-amino-2-methyl-1-propanol (AMP) and was taken after c.a. 5000 hours (c.a. 208 days) of operation in the pilot plant campaign described in Example 2, was extracted with dichloromethane as described in Example 5. As a result of the extraction, the viscosity of the sample was reduced from 9.9 mPa·s to 6.0 mPa·s (measured at 40° C. using an Anton Parr LOVIS 2000 ME instrument). By comparison, the viscosity of the fresh, CO2 free absorbent was 4.7 mPa·s. The effect of the viscosity reduction is to improve the performance of the absorbent in the plant through better flow properties and reduced mass transfer resistance.
The synthesised imine (structure confirmed by IR spectroscopy) was added to fresh absorbent and the impact on viscosity measured (measured at 40° C. using an Anton Parr LOVIS 2000 ME).

[4] = Extraction of imine dimer into organic solvents (liquid-liquid partition, GC-MS, 13C NMR); type: physicochemical
Description: (§1) A sample of the aqueous absorbent, which had initially contained 3 mol/L 3-AMPy and 3 mol/L 2-amino-2-methyl-1-propanol (AMP), was taken after 3800 hours (c.a. 158 days) of operation in the pilot plant campaign described in Example 2. Despite the improved stability of the solution as a result of the AMP, it is evident from FIG. 3 that imine dimer degradation product was present in significant quantities (c.a. 0.2 mol/litre) by this time.
Equal volumes of the sample and dichloromethane were vigorously shaken in a separating funnel and allowed to undergo phase separation. The two phases were then collected and separately analysed by GC-MS. FIGS. 4 and 5 depict gas chromatographs of the organic and aqueous phases respectively, with the peaks identified by mass spectrometry via comparison against libraries of reference spectra.
Samples of the same aqueous absorbent were also extracted with equal volumes of toluene or ethyl acetate. The organic phases after extraction with dichloromethane, toluene and ethyl acetate were analysed by ^13C NMR.

[5] = Extraction of imine dimer by solid absorption on Amberlite XAD-2; type: physicochemical; details: Amberlite XAD-2, stirred 2 hours, 13C NMR
Description: as §1, with “5000” for “3800”, “208” for “158”, “AMP,” for “AMP, it is evident from FIG. 3 that”, “0.35” for “0.2”
Amberlite XAD-2, a hydrophobic crosslinked polystyrene copolymer resin, was washed 3 times in deionized water followed by washing 3 times in dichloromethane (DCM). The cleaned beads were mixed with the absorbent sample that had been exposed to 5000 hours of flue gas. The mixture was stirred for 2 hours to allow the hydrophobic components to adhere to the polymer resin. The mixture was filtered to remove the water soluble portion of the degraded amine absorbent. The beads were washed with water and this water added to the filtrate. The beads were then washed with 3 portions of DCM, and the collected DCM was partially evaporated.
Very little amine was extracted into the beads and carried over to the DCM wash, as evidenced by the lack of peaks near 42 ppm (these peaks are present in the sample and aqueous filtrate spectra). […]

[6] = Hydrolysis of imine dimer under acidic aqueous conditions; type: physicochemical; details: acetic acid and water with DCM solution, room temperature, 24 hours
Description: The imine of Formula (II) is found to be unstable in acidic aqueous conditions. For the case where the degradation product is extracted from the liquid absorbent into an organic solvent, hydrolysis may thus be achieved by contacting the separated organic phase with an acidified aqueous phase, for example containing a catalytic amount of acetic acid. After suitable mixing and time for hydrolysis, the two phases are separated by conventional liquid-liquid separation techniques, with the regenerated amine of Formula (I) partitioned into the aqueous phase and the less polar aldehyde of Formula (III) remaining in the organic phase. The aqueous phase, now containing a first portion of regenerated amine of Formula (I), may then be recycled to the gas absorption process. It will be appreciated that a theoretical maximum of 50 mol % of the degraded amine may be recovered by this process step, since each molecule of imine incorporates two amine molecules.
A sample of the aqueous absorbent, which had initially contained 3 mol/L 3-AMPy and 3 mol/L 2-amino-2-methyl-1-propanol (AMP) and was taken after c.a. 3800 hours (c.a. 158 days) of operation in the pilot plant campaign described in Example 2. The sample was shaken with an equal volume of dichloromethane (DCM) in a separating funnel for 1 minute. The phases were then allowed to separate and each phase was collected separately. […]

[7] = Accelerated oxidative degradation of benzylamine (CO2/O2, 55° C., 13C-NMR); type: physicochemical; details: 1 mol/L, CO2 (1 bar) and O2 (9 bar), 10 days, relative 13C-NMR peak areas
Description: A solution of 10 mL of 1 mol/L BZA was placed in a Fischer-Porter vessel. […] Based on relative peak areas approximately 41% of the BZA had been converted to imine.

Row | Structure (SMILES) | pKa at 25° C. ([1]; table in description) | pKa at 25° C. ([1]; table of Example 4) | other results
1 | NCC(=O)[O-].[Na+] [sodium glycinate] | 9.6 | 9.6 | 
2 | CC(N)CO (stereo not drawn) [2-amino-1-propanol] | 9.5 | 9.5 | 
3 | NCc1cccnc1 [3-(aminomethyl)pyridine] |  |  | DEA degradation (13C-NMR peak at 67 ppm) in presence of sacrificial amine [2]: this degradation has not occurred
4 | NCCS(=O)(=O)[O-].[K+] [potassium taurate] | 9.1 | 9.1 | 
5 | C(=NCc1cccnc1)c1cccnc1 [imine dimer] |  |  | impact on viscosity of fresh absorbent [3]: increased with the concentration of synthetic imine added; extraction into organic phase ([4]; dichloromethane, toluene or ethyl acetate, equal volumes, 13C NMR): successful and selective extraction; phase distribution after extraction ([4]; equal volumes of used absorbent sample and dichloromethane, GC-MS): almost exclusively present in the organic phase; extraction by hydrophobic resin beads [5]: majority of the imine was extracted; stability under acidic aqueous conditions [6]: unstable
6 | NCc1ccccc1 [BZA, benzylamine] |  |  | amine converted to imine [7]: approximately 41%
7 | OCC1CCNCC1 [4-piperidinylmethanol] |  | 10.6 | 
8 | OCC1CCCCN1 (stereo not drawn) [2-piperidinylmethanol] |  | 10.1 | 
